# Measured values reported in publication PMC12507957 (Drug Delivery and Translational Research, 2025).
# Several values for one entry are separate records, joined by “and”; a condition that tells them apart may be missing. Identical values can stand only once. Like-named read-outs stand apart in the source and are kept apart here. Marks after values point to notes of the source that are not given here.
# Columns and labels:
# [1] = In vitro skin permeation of 5%w/v MTG in single solvents (Franz diffusion cells), with infinite dose model fitting; assay type: in vitro ADME, porcine; conditions: for Papp at 48 h, 5 %w/v: pig, read-out: Kp (permeability coefficient) (converted)
# Description: The in vitro permeation study was performed in triplicate using Franz diffusion cell apparatus with a diffusion area of ~ 0.8 cm^2 and a receptor volume of ~ 3 mL. The porcine skin was thawed at room temperature and cut into an appropriate size before mounting on the Franz diffusion cells. The receptor compartment was filled with PBS containing 0.02%w/v of sodium azide and a selected antioxidant. The Franz diffusion cells were placed into a water bath to maintain the skin temperature at 32 ± 0.5 °C. […] After 48-h permeation studies, the mass balance studies were performed.
# (§1) Samples were analysed using Shimadzu liquid chromatographic system (Kyoto, Japan) with SPD-20A UV–vis detector set at 254 nm. A reverse phase ZORBAX Eclipse Plus C18 column (Agilent Technologies, 150 × 4.6 mm ID × 3.5 μm) coupled with a C18 guard column (Phenomenex SecurityGuard™, 4 × 3.0 mm ID × 5 μm) was employed as the stationary phase. A gradient elution method with acetonitrile and 0.1%v/v of formic acid as the mobile phase (30:70 to 70:30 (v/v) over 1 min and held until 4 min; then returned to 30:70 (v/v) from 4 to 6 min and held up until 10 min) at a flow rate of 1.2 mL/min was used. The injection volume was set at 100 μL and the total run time was 10 min with a retention time of ~ 4 min.
# To estimate the permeation parameters (P1 and P2), the in vitro permeation data were fitted to the infinite dose model (Eq. 1) using non-linear least squares. This infinite dose model was obtained by solving the diffusion equation using Laplace transform, which was subsequently numerically inverted using Weeks method and fitted to in Python 3.13.3 (Python Software Foundation, Wilmington, DE, US).1 Q¯s=J·A/s=P1ACd/ss/P2sinhs/P2
# Here, Q¯s is the cumulative amount of drug permeated, J is the permeation flux, A is the permeation area, Cd is the initial concentration, h is the membrane thickness and s is the Laplace variable. The apparent partition and apparent diffusion coefficients, P1 and P2, are related to the h and the diffusion (D) and partition (K) coefficients, as defined in Eq. 2 and Eq. 3 [32]. The goodness of fit was measured based on the coefficient of determination (R^2) and root mean square error (RMSE).2 P1=Kh 3 P2=D/h^2
# The permeability coefficient (Kp), steady-state flux (Jss) and lag time (tlag) can then be calculated using Eqs. 4, 5, and 6 [33] with the estimated values of P1 and P2 from the curve fitting.4 Kp=P1P2 5 Jss=KpCd 6 tlag=h^2/6D
# Other permeation parameters were determined experimentally, where A was 0.7–0.8 cm^2, h was 0.0586 cm, Cd was 50 mg/mL and the volume of drug loaded was 40 µL.
# [2] = Stability studies of MTG in simple solvent systems with and without BHT; assay type: physicochemical
# Description: as §1, with “min. The limits of detection and quantification were 0.47 and 1.43 μg/mL for a lower concentration drug range (0.5–10 μg/mL) and 4.29 and 13.01 μg/mL for a higher concentration drug range (10–175 μg/mL), respectively. The linearity for both calibration curves was excellent (R^2 > 0.999).” for “min.”
# [3] = 5%w/v MTG in DMSO, receptor PBS with 0.01%w/v ascorbic acid (DMSO-AA), 48 h
# [4] = 5%w/v MTG in DMSO, receptor PBS without ascorbic acid, 48 h
# [5] = 5%w/v MTG in Labrasol, receptor PBS with 0.01%w/v ascorbic acid (Labrasol-AA), 48 h
# [6] = 5%w/v MTG in Lauroglycol, receptor PBS with 0.01%w/v ascorbic acid (Lauroglycol-AA), 48 h
# [7] = 5%w/v MTG in Maisine, receptor PBS with 0.01%w/v ascorbic acid (Maisine-AA), 48 h
# [8] = 5%w/v MTG in Maisine, receptor PBS without ascorbic acid, 48 h
# [9] = 5%w/v MTG in PG, receptor PBS with 0.01%w/v ascorbic acid (PG-AA), 48 h
# [10] = 5%w/v MTG in PG, receptor PBS without ascorbic acid, 48 h
# [11] = 5%w/v MTG in Transcutol, receptor PBS with 0.01%w/v ascorbic acid (Transcutol-AA), 48 h
# [12] = 5%w/v MTG in Transcutol, receptor PBS without ascorbic acid, 48 h
# [13] = 5%w/v in dimethyl sulphoxide and Transcutol, optimised receptor medium (0.01%w/v ascorbic acid in PBS)
compound,measurement,setting,value
"CC[C@@H]1CN2CCc3c([nH]c4cccc(OC)c34)[C@@H]2C[C@@H]1/C(=C\OC)C(=O)OC [MTG, mitragynine]",Jss (steady-state flux),[1]; [3],0.77 ± 0.18 µg/cm^2/h and 0.77 ± 0.18^d µg/cm^2/h
same,P1 (apparent partition coefficient),[1]; [3],20.35 ± 8.07 × 10^–4 cm
same,P2 (apparent diffusion coefficient),[1]; [3],8.01 ± 1.91 × 10^–3 h^−1
same,Permeation (cumulative amount of MTG permeated),[1]; [3],15.40 ± 2.40 µg/cm^2
same,tlag (lag time),[1]; [3],21.53 ± 4.53 h
same,Cumulative amount of MTG permeated,[1]; [4],14.40 ± 3.34 μg/cm^2
same,Jss (steady-state flux),[1]; [4],0.52 ± 0.15 µg/cm^2/h
same,P1 (apparent partition coefficient),[1]; [4],8.90 ± 5.52 × 10^–4 cm
same,P2 (apparent diffusion coefficient),[1]; [4],13.40 ± 4.73 × 10^–3 h^−1
same,tlag (lag time),[1]; [4],13.52 ± 4.70 h
same,Jss (steady-state flux),[1]; [5],0.14 ± 0.11 µg/cm^2/h
same,P1 (apparent partition coefficient),[1]; [5],6.83 ± 5.64^a × 10^–4 cm
same,P2 (apparent diffusion coefficient),[1]; [5],4.33 ± 0.52 × 10^–3 h^−1
same,Permeation (cumulative amount of MTG permeated),[1]; [5],1.53 ± 1.08 µg/cm^2
same,tlag (lag time),[1]; [5],"38.85 ± 4.39^e,f h"
same,Permeation (cumulative amount of MTG permeated),"[1]; 5%w/v MTG in Labrasol, receptor PBS without ascorbic acid, 48 h",1.36 ± 1.45 µg/cm^2
same,Jss (steady-state flux),[1]; [6],0.11 ± 0.07 µg/cm^2/h
same,P1 (apparent partition coefficient),[1]; [6],0.65 ± 0.09^a × 10^–4 cm
same,P2 (apparent diffusion coefficient),[1]; [6],33.50 ± 18.62^b × 10^–3 h^−1
same,Permeation (cumulative amount of MTG permeated),[1]; [6],3.65 ± 2.40 µg/cm^2
same,tlag (lag time),[1]; [6],6.39 ± 4.02^e h
same,Permeation (cumulative amount of MTG permeated),"[1]; 5%w/v MTG in Lauroglycol, receptor PBS without ascorbic acid, 48 h",0.77 ± 0.25 µg/cm^2
same,Jss (steady-state flux),[1]; [7],0.27 ± 0.07 µg/cm^2/h
same,P1 (apparent partition coefficient),[1]; [7],2.18 ± 0.48^a × 10^–4 cm
same,P2 (apparent diffusion coefficient),[1]; [7],25.90 ± 8.44 × 10^–3 h^−1
same,Permeation (cumulative amount of MTG permeated),[1]; [7],8.39 ± 2.61 µg/cm^2
same,tlag (lag time),[1]; [7],7.05 ± 2.82^e h
same,Jss (steady-state flux),[1]; [8],0.10 ± 0.09 µg/cm^2/h
same,P1 (apparent partition coefficient),[1]; [8],1.89 ± 1.95 × 10^–4 cm
same,P2 (apparent diffusion coefficient),[1]; [8],12.86 ± 5.15 × 10^–3 h^−1
same,Permeation (cumulative amount of MTG permeated),[1]; [8],2.26 ± 1.93 µg/cm^2
same,tlag (lag time),[1]; [8],14.19 ± 4.62 h
same,Jss (steady-state flux),[1]; [9],0.33 ± 0.12 µg/cm^2/h
same,P1 (apparent partition coefficient),[1]; [9],9.49 ± 3.95 × 10^–4 cm
same,P2 (apparent diffusion coefficient),[1]; [9],7.17 ± 0.89 × 10^–3 h^−1
same,Permeation (cumulative amount of MTG permeated),[1]; [9],6.06 ± 2.12 µg/cm^2 and 6.06 ± 2.13 µg/cm^2
same,tlag (lag time),[1]; [9],23.50 ± 2.93 h
same,Cumulative amount of MTG permeated,[1]; [10],5.24 ± 2.28 μg/cm^2
same,Jss (steady-state flux),[1]; [10],0.48 ± 0.37 µg/cm^2/h
same,P1 (apparent partition coefficient),[1]; [10],25.55 ± 25.22 × 10^–4 cm
same,P2 (apparent diffusion coefficient),[1]; [10],7.33 ± 6.13 × 10^–3 h^−1
same,tlag (lag time),[1]; [10],33.85 ± 20.70 h
same,Jss (steady-state flux),[1]; [11],0.46 ± 0.22 µg/cm^2/h
same,P1 (apparent partition coefficient),[1]; [11],10.40 ± 4.15 × 10^–4 cm
same,P2 (apparent diffusion coefficient),[1]; [11],8.76 ± 0.55 × 10^–3 h^−1
same,Permeation (cumulative amount of MTG permeated),[1]; [11],10.27 ± 4.40 µg/cm^2
same,tlag (lag time),[1]; [11],19.07 ± 1.17 h
same,Jss (steady-state flux),[1]; [12],0.44 ± 0.18 µg/cm^2/h
same,P1 (apparent partition coefficient),[1]; [12],26.94 ± 23.48 × 10^–4 cm
same,P2 (apparent diffusion coefficient),[1]; [12],4.29 ± 1.70 × 10^–3 h^−1
same,Permeation (cumulative amount of MTG permeated),[1]; [12],3.89 ± 1.41 µg/cm^2
same,tlag (lag time),[1]; [12],44.70 ± 22.17 h
same,Cumulative amount of MTG permeated,"[1]; 5%w/v MTG in the rest of the solvents (other than DMSO), receptor PBS without ascorbic acid, 48 h",< 4 μg/cm^2
same,Drug permeation,"[1]; 5%w/v in Labrasol and Lauroglycol, optimised receptor medium",1 – 4 μg/cm^2
same,Mitragynine permeated,"[1]; 5%w/v in Maisine and propylene glycol, optimised receptor medium",6 – 8 µg/cm^2
same,Mitragynine permeation,[1]; [13],10 – 15 µg/cm^2
same,Skin fluxes,[1]; [13],0.5 – 0.8 µg/cm^2/h
same,MTG amount permeated with vs without ascorbic acid in receptor medium (times higher),"[1]; Transcutol-AA and Maisine-AA vs Transcutol and Maisine, 48 h",3–4 times
same,"Papp at 48 h, 5 %w/v",[1]; [3],0.00425 ×10⁻⁶ cm/s
same,"Papp at 48 h, 5 %w/v",[1]; [4],0.00291 ×10⁻⁶ cm/s
same,"Papp at 48 h, 5 %w/v",[1]; [5],0.000775 ×10⁻⁶ cm/s
same,"Papp at 48 h, 5 %w/v",[1]; [6],0.000631 ×10⁻⁶ cm/s
same,"Papp at 48 h, 5 %w/v",[1]; [7],0.00151 ×10⁻⁶ cm/s
same,"Papp at 48 h, 5 %w/v",[1]; [9],0.00183 ×10⁻⁶ cm/s
same,"Papp at 48 h, 5 %w/v",[1]; [10],0.00266 ×10⁻⁶ cm/s
same,"Papp at 48 h, 5 %w/v",[1]; [11],0.00257 ×10⁻⁶ cm/s
same,"Papp at 48 h, 5 %w/v",[1]; [12],0.00247 ×10⁻⁶ cm/s
same,Percentage recovery of MTG,"[2]; 200 μg/mL in DMSO without BHT, 32 °C, after 96 h",67.68 ± 1.22%
same,Percentage recovery of MTG,"[2]; 200 μg/mL in Labrasol with 0.01%w/v BHT, 32 °C, after 96 h",46.34 ± 2.49%
same,Percentage recovery of MTG,"[2]; 200 μg/mL in Labrasol without BHT, 32 °C, after 96 h",4.39 ± 0.70%
same,Percentage recovery of MTG,"[2]; 200 μg/mL in Lauroglycol without BHT, 32 °C, after 96 h",30.84 ± 1.21%
same,Percentage recovery of MTG,"[2]; 200 μg/mL in Maisine without BHT, 32 °C, after 96 h",19.65 ± 1.17%
same,Percentage recovery of MTG,"[2]; 200 μg/mL in PG without BHT, 32 °C, after 96 h",73.82 ± 1.05%
same,Percentage recovery of MTG,"[2]; 200 μg/mL in Transcutol without BHT, 32 °C, after 96 h",40.23 ± 5.46%
same,Percentage recovery of MTG,"[2]; DMSO, PG and Transcutol with at least 0.05%w/v of BHT",above 80%
same,Percentage recovery of MTG,[2]; in all solvents (without BHT) after 96 h,< 80%
same,Percentage recovery of MTG,"[2]; remaining solvents (Transcutol, Lauroglycol, Maisine, Labrasol) without BHT, after 96 h",< 50%
